Test results published in ChEMBL document CHEMBL5625172, “Synthesis and evaluation of dihydrofuro[2,3-b]pyridine derivatives as potent IRAK4 inhibitors” (Eur J Med Chem, 2023).
Blank lines part the entries; values can stand above or below the compound they belong to. Calls of active or inactive are those of the source. No cut-off for these calls is given here.

Columns and labels:
[1] = target: T1, Interleukin-1 receptor-associated kinase 4 (Homo sapiens, UniProt Q9NWZ3); test: Inhibition of IRAK4 (unknown origin) using FAM-labeled peptide as substrate incubated for 10 mins in presence of ATP by mobility shift assay
T1 sequence (Q9NWZ3 whole entry): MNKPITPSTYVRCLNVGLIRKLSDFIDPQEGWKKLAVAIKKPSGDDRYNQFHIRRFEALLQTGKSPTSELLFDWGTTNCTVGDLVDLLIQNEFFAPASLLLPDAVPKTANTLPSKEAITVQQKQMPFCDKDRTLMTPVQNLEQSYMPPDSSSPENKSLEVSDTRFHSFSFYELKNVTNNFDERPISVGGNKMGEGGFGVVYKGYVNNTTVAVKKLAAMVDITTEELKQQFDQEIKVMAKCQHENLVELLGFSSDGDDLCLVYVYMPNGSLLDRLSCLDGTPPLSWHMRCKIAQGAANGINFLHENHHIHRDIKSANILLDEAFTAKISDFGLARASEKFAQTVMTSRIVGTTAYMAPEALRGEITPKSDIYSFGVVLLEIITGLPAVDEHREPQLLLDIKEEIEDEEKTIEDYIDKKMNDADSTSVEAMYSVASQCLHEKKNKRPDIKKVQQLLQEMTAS

[2] = Oral bioavailability in Sprague-Dawley rat at 5 to 10 mg/kg measured after 0.25 to 24 hrs by LC-MS analysis; format: ADME, organism-based; settings: in vivo, dose lower 5 mg/kg, time lower 0.25 hrs, dose upper 10 mg/kg, time upper 24 hrs
[3] = Clearance in Sprague-Dawley rat at 2 mg/kg, iv measured after 5 mins to 24 hrs by LC-MS analysis; format: ADME, organism-based; settings: in vivo, time 5-1440 min
[4] = Inhibition of LPS-induced TNFalpha protein expression in human PBMC cells preincubated for 2 hrs followed by LPS stimulation and measured after 16 hrs by ELISA; format: functional, cell-based
[5] = Plasma protein binding in Sprague-Dawley rat by LC-MS analysis; format: ADME, cell-free; settings: read-out: PPB (converted)
[6] = target: Epidermal growth factor receptor (Homo sapiens, UniProt P00533); test: Inhibition of EGFR (unknown origin) by scintillation proximity assay
MEF = test: Cytotoxicity against MEF cells at 3 uM; format: toxicity, cell-based; settings: mouse
[7] = target: Receptor-interacting serine/threonine-protein kinase 1 (Homo sapiens, UniProt Q13546); test: Inhibition of RIPK1 (unknown origin) by scintillation proximity assay
[8] = Inhibition of LPS-induced IL-6 protein expression in immortalized mouse BMDM cells preincubated for 2 hrs followed by LPS stimulation and measured after 16 hrs by ELISA; format: functional, cell-based
[9] = Plasma protein binding in CD-1 mouse by LC-MS analysis; format: ADME, cell-free; settings: read-out: PPB (converted)
[10] = target: MAP kinase-activated protein kinase 2 (Homo sapiens, UniProt P49137); test: Inhibition of MAPKAP-K2 (unknown origin) by scintillation proximity assay
[11] = target: Receptor-type tyrosine-protein kinase FLT3 (Homo sapiens, UniProt P36888); test: Inhibition of FLT3 (unknown origin) by scintillation proximity assay
[12] = target: Mitogen-activated protein kinase kinase kinase 5 (Homo sapiens, UniProt Q99683); test: Inhibition of ASK1 (unknown origin) by scintillation proximity assay
[13] = Inhibition of LPS-induced TNFalpha protein expression in immortalized mouse BMDM cells preincubated for 2 hrs followed by LPS stimulation and measured after 16 hrs by ELISA; format: functional, cell-based
[14] = target: Receptor-interacting serine/threonine-protein kinase 2 (Homo sapiens, UniProt O43353); test: Inhibition of RIPK2 (unknown origin) by scintillation proximity assay
[15] = Inhibition of LPS-induced IL-6 mRNA expression in human PBMC cells preincubated for 2 hrs followed by LPS stimulation and measured after 16 hrs by qPCR analysis; format: functional, cell-based
[16] = target: Serine/threonine-protein kinase PAK 1 (Homo sapiens, UniProt Q13153); test: Inhibition of PAK1 (unknown origin) by scintillation proximity assay
[17] = target: Dual specificity protein kinase CLK1 (Homo sapiens, UniProt P49759); test: Inhibition of CLK1 (unknown origin) by scintillation proximity assay
[18] = target: Tyrosine-protein kinase JAK1 (Homo sapiens, UniProt P23458); test: Inhibition of JAK1 (unknown origin) by scintillation proximity assay
CDK4/Cyclin D3 = CDK4/Cyclin D3 (Homo sapiens, UniProt P11802); test: Inhibition of CDK4/cyclinD3 (unknown origin) by scintillation proximity assay; format: protein-complex assay
[19] = Clearance in Sprague-Dawley rat assessed as liver blood flow at 2 mg/kg, iv measured after 5 mins to 24 hrs by LC-MS analysis; format: ADME, organism-based; settings: in vivo, time 5-1440 min
[20] = target: Serine/threonine-protein kinase MRCK alpha (Homo sapiens, UniProt Q5VT25); test: Inhibition of MRCKa (unknown origin) by scintillation proximity assay
[21] = Plasma protein binding in human by LC-MS analysis; format: ADME, cell-free; settings: read-out: PPB
[22] = Inhibition of CDK2/cyclinA (unknown origin) by scintillation proximity assay; design: species or system Homo sapiens
[23] = target: Serine/threonine-protein kinase 38 (Homo sapiens, UniProt Q15208); test: Inhibition of NDR1 (unknown origin) by scintillation proximity assay
[24] = target: Interleukin-1 receptor-associated kinase 1 (Homo sapiens, UniProt P51617); test: Binding affinity to IRAK1 (unknown origin) by kinomescan competition binding assay
BMDM = test: Cytotoxicity against immortalized mouse BMDM cells at 3 uM; format: toxicity, cell-based
[25] = Cytotoxicity against Splenocytes (unknown origin) at 3 uM; format: toxicity, cell-based; settings: splenocyte
Mus musculus = test: In vivo inhibition of LPS-induced TNF-alpha protein level in C57BL/6 mouse assessed as reduction in TNF-alpha level in serum at 50 to 100 mg/kg, po administered for 1 hr followed by LPS stimulation and measured after 3 hrs by ELISA; format: functional, organism-based; settings: dose 50-100 mg/kg, time 4.0 hrs
[26] = target: Dual specificity tyrosine-phosphorylation-regulated kinase 1A (Homo sapiens, UniProt Q13627); test: Inhibition of DYRK1A (unknown origin) by scintillation proximity assay
[27] = target: Calcium/calmodulin-dependent protein kinase type 1 (Homo sapiens, UniProt Q14012); test: Inhibition of CaMKI (unknown origin) by scintillation proximity assay
[28] = Inhibition of LPS-induced TNFalpha mRNA expression in immortalized mouse BMDM cells preincubated for 2 hrs followed by LPS stimulation and measured after 16 hrs by qPCR analysis; format: functional, cell-based
[29] = target: Serine/threonine-protein kinase B-raf (Homo sapiens, UniProt P15056); test: Inhibition of B-Raf (unknown origin) by scintillation proximity assay
[30] = target: cAMP-dependent protein kinase catalytic subunit beta (Homo sapiens, UniProt P22694); test: Inhibition of PKA-C beta (unknown origin) by scintillation proximity assay
[31] = Inhibition of LPS-induced IL-6 mRNA expression in immortalized mouse BMDM cells preincubated for 2 hrs followed by LPS stimulation and measured after 16 hrs by qPCR analysis; format: functional, cell-based
[32] = target: Tyrosine-protein kinase BTK (Homo sapiens, UniProt Q06187); test: Inhibition of BTK (unknown origin) by scintillation proximity assay
[33] = target: Serine/threonine-protein kinase 17A (Homo sapiens, UniProt Q9UEE5); test: Inhibition of DRAK1 (unknown origin) by scintillation proximity assay
[34] = target: Homeodomain-interacting protein kinase 1 (Homo sapiens, UniProt Q86Z02); test: Inhibition of HIPK1 (unknown origin) by scintillation proximity assay

Tyrosine-protein kinase BTK, sequence (Q06187 whole entry): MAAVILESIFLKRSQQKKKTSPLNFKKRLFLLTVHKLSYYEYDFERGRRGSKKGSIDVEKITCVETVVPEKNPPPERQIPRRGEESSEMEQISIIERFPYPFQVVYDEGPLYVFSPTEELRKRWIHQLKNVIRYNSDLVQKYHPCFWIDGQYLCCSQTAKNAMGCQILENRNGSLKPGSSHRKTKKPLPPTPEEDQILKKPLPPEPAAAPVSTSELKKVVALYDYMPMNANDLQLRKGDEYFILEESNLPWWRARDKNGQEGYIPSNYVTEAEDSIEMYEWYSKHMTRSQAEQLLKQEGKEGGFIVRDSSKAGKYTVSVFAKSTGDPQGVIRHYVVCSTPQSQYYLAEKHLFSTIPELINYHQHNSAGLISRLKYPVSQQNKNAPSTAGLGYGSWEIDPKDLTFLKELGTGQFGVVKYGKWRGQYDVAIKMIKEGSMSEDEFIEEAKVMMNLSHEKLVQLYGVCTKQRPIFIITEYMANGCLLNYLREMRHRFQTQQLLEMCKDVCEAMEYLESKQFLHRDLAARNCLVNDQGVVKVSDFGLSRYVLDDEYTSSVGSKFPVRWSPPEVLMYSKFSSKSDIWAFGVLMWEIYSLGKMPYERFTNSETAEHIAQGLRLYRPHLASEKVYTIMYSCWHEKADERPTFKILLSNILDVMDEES
Tyrosine-protein kinase JAK1, sequence (P23458 whole entry): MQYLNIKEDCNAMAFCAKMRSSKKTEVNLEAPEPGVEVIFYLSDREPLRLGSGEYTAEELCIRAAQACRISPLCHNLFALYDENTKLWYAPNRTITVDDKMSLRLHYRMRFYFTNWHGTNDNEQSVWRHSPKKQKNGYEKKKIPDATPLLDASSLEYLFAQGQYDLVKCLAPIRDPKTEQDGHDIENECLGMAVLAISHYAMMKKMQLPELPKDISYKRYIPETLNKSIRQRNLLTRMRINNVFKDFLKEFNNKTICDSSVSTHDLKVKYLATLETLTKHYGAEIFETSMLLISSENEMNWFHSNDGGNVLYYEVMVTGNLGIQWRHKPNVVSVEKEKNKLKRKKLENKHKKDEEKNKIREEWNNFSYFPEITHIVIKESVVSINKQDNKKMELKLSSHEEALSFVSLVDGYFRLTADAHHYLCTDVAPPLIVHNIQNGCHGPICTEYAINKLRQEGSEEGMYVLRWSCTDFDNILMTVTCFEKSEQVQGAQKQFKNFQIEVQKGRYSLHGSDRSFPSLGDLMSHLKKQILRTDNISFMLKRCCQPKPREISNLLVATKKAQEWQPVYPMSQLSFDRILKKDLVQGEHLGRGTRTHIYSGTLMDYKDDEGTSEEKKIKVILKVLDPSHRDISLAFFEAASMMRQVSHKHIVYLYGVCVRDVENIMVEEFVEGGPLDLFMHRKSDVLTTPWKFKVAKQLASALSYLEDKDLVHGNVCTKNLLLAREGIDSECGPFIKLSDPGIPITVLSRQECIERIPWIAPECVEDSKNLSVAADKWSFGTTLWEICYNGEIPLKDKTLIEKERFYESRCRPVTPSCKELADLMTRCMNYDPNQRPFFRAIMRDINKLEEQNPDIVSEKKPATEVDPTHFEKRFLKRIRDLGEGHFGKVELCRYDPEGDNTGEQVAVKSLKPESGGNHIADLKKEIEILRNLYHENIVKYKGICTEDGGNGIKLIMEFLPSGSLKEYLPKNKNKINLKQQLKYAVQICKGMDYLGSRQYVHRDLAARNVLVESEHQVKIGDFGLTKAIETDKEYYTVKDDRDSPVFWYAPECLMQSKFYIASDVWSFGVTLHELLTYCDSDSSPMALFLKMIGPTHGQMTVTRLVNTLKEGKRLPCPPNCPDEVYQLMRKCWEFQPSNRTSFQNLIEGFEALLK
MAP kinase-activated protein kinase 2, sequence (P49137 whole entry): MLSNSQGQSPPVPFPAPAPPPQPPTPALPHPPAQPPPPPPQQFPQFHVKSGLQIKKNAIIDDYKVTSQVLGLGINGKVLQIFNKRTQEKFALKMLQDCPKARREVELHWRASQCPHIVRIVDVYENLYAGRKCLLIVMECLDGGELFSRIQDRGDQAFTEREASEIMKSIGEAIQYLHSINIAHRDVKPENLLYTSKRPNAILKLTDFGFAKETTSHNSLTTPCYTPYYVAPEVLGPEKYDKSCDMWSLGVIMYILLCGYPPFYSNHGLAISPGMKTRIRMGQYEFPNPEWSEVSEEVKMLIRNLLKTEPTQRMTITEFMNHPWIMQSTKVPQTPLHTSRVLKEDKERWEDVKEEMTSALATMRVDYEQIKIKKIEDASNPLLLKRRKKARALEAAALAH
Calcium/calmodulin-dependent protein kinase type 1, sequence (Q14012 whole entry): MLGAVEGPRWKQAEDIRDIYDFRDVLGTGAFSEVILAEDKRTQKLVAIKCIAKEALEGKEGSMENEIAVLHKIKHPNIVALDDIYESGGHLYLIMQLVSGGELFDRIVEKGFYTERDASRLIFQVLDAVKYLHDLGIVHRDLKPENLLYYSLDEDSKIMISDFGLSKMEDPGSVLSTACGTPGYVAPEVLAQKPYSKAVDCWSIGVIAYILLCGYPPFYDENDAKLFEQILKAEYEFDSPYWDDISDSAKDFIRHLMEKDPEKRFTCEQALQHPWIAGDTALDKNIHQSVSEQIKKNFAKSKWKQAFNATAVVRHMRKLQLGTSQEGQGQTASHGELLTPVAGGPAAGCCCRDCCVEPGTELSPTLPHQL
Serine/threonine-protein kinase 17A, sequence (Q9UEE5 whole entry): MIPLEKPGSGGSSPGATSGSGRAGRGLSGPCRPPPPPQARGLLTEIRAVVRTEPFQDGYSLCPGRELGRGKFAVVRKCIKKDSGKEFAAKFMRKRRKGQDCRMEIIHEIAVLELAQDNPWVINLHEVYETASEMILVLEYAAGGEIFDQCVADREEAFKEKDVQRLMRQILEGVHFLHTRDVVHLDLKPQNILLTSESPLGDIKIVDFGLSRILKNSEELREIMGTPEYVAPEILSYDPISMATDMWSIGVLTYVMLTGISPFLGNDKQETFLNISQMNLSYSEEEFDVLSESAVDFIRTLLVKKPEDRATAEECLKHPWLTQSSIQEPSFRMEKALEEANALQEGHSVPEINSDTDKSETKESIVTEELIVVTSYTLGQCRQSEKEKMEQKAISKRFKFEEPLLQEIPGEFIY
Serine/threonine-protein kinase B-raf, sequence (P15056 whole entry): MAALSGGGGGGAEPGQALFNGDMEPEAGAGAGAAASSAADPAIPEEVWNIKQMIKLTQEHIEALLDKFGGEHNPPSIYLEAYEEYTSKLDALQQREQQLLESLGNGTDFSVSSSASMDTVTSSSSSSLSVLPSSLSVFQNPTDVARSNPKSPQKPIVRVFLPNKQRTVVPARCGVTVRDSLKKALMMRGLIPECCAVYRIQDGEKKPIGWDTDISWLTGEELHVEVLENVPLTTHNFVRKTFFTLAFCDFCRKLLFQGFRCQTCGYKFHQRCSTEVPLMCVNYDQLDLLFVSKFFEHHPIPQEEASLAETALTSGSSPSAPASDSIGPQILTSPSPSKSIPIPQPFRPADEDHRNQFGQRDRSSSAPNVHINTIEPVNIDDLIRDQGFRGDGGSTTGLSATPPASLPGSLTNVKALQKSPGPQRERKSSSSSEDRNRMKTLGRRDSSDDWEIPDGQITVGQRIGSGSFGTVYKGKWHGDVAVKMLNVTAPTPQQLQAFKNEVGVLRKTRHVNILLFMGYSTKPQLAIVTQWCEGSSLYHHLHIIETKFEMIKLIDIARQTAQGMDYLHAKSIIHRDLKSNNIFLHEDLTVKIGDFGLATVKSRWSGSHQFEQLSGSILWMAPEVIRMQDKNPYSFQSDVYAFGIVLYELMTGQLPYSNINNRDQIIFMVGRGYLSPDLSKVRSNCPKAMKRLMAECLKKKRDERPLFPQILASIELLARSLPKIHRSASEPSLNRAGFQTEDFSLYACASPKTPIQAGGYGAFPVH
Serine/threonine-protein kinase PAK 1, sequence (Q13153 whole entry): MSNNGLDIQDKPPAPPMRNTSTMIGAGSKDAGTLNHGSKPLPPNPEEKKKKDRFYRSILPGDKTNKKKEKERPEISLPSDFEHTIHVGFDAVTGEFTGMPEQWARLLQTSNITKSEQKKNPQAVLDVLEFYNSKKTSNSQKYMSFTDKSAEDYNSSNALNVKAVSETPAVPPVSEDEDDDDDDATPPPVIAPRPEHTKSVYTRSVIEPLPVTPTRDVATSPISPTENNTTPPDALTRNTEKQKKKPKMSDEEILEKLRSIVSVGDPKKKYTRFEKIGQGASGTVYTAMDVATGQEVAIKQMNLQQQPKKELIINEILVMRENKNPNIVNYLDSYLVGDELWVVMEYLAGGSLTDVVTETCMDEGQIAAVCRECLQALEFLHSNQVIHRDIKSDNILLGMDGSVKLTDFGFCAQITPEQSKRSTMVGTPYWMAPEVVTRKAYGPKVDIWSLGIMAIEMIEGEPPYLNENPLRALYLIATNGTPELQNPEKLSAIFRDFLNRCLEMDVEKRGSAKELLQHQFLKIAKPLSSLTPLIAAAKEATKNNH
Receptor-interacting serine/threonine-protein kinase 2, sequence (O43353 whole entry): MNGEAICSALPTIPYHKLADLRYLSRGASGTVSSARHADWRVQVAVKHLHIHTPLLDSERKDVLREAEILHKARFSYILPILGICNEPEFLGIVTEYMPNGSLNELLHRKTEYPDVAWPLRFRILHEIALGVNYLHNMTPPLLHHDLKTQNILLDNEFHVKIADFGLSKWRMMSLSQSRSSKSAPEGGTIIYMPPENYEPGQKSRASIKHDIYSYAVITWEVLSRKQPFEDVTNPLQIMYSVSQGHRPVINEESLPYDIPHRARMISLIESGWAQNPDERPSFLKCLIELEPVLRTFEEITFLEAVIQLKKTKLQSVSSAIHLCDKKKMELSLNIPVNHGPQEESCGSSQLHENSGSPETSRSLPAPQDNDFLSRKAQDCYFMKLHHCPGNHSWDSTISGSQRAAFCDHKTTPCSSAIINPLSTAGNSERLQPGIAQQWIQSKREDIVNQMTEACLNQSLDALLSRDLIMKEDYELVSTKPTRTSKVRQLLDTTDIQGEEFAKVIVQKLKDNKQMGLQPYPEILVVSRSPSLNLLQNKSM

SMILES: CCOc1nc2c(cc1C(=O)Nc1cnn(C)c1)CC(C)(C)O2
- IC50 [1]: > 6000 nM

SMILES: CCOc1nc2c(cc1C(=O)Nc1cnn3cccnc13)CC(C)(C)O2
- IC50 [1]: 96 nM

SMILES: Cn1cc(-c2cccc(NC(=O)c3cc4c(nc3OC3CCNC3)OC(C)(C)C4)n2)cn1 (stereo unspecified)
- IC50 [1]: 379 nM

SMILES: CCOc1nc2c(cc1C(=O)Nc1cccc(-c3ccnn3C)n1)CC(C)(C)O2
- IC50 [1]: 75 nM

SMILES: Cn1cc(-c2cccc(NC(=O)c3cc4c(nc3OC3CC3)OC(C)(C)C4)n2)cn1
- bioavailability [2]: 1.6%
- clearance [3]: 43 mL/min/kg

SMILES: Cn1cc(-c2cccc(NC(=O)c3cc4c(nc3O[C@H]3C[C@@H](O)C3)OC(C)(C)C4)n2)cn1
- IC50 [4]: 54.1 nM
- fraction unbound [5]: 0.03
- IC50 [6]: > 30 µM
- Activity (MEF): Toxic
- IC50 [7]: 4.69 µM
- IC50 [8]: 130 nM
- fraction unbound [9]: 0.02
- IC50 [10]: > 30 µM
- IC50 [11]: 11 nM
- IC50 [12]: > 30 µM
- IC50 [13]: 495 nM
- IC50 [14]: 8.35 µM
- IC50 [15]: 560 nM
- bioavailability [2]: 21%
- IC50 [16]: > 30 µM
- IC50 [17]: 9 nM
- IC50 [18]: > 30 µM
- IC50 (CDK4/Cyclin D3): > 30 µM
- LBF [19]: < 30%
- IC50 [20]: > 30 µM
- fraction unbound [21]: 0.01
- IC50 [22]: 2990 nM
- IC50 [23]: 16.5 µM
- Kd [24]: 13 nM
- Activity (BMDM): Toxic
- Activity [25]: Toxic
- clearance [3]: 12 mL/min/kg
- inhibition (Mus musculus): Active
- IC50 [26]: 34 nM
- IC50 [27]: > 30 µM
- IC50 [28]: 1200 nM
- IC50 [29]: 25.7 µM
- IC50 [30]: > 30 µM
- IC50 [31]: 214 nM
- IC50 [32]: > 30 µM
- IC50 [33]: 788 nM
- IC50 [34]: 26.5 µM

SMILES: Cn1cc(-c2cccc(NC(=O)c3cc4c(nc3OC3COC3)OC(C)(C)C4)n2)cn1
- bioavailability [2]: 1.5%
- clearance [3]: 58 mL/min/kg

SMILES: CN1CCC(Oc2nc3c(cc2C(=O)Nc2cccc(-c4cnn(C)c4)n2)CC(C)(C)O3)C1 (stereo unspecified)
- IC50 [1]: 74 nM

SMILES: CCOc1nc2c(cc1C(=O)Nc1cccc(C(F)(F)F)n1)CC(C)(C)O2
- IC50 [1]: 194 nM

SMILES: CCOc1nc2c(cc1C(=O)Nc1cccc(OC)n1)CC(C)(C)O2
- IC50 [1]: 87 nM

SMILES: CCOc1nc2c(cc1C(=O)Nc1cccc(C)n1)CC(C)(C)O2
- IC50 [1]: 112 nM

SMILES: CCOc1nc2c(cc1C(=O)Nc1cccc(-c3ccn(C)n3)n1)CC(C)(C)O2
- IC50 [1]: 1370 nM

SMILES: Cn1cc(-c2cccc(NC(=O)c3cc4c(nc3O[C@@H]3CCOC3)OC(C)(C)C4)n2)cn1
- bioavailability [2]: 6.2%
- clearance [3]: 31 mL/min/kg

The remaining lines, values ahead:

- IC50 [1]: 6 nM
- bioavailability [2]: 3.1%
- clearance [3]: 41 mL/min/kg
SMILES: Cn1cc(-c2cccc(NC(=O)c3cc4c(nc3OC3CCC3)OC(C)(C)C4)n2)cn1

- IC50 [1]: 5.7 nM
SMILES: Cn1cc(-c2cccc(NC(=O)c3cc4c(nc3OC3CCCC3)OC(C)(C)C4)n2)cn1

- bioavailability [2]: 3.6%
- clearance [3]: 43 mL/min/kg
SMILES: CCOc1nc2c(cc1C(=O)Nc1cccc(-c3cnn(C)c3)n1)CC(C)(C)O2

- bioavailability [2]: 11%
- clearance [3]: 18 mL/min/kg
SMILES: Cn1cc(-c2cccc(NC(=O)c3cc4c(nc3O[C@H]3C[C@H](O)C3)OC(C)(C)C4)n2)cn1

- IC50 [1]: 111 nM
SMILES: CNCCOc1nc2c(cc1C(=O)Nc1cccc(-c3cnn(C)c3)n1)CC(C)(C)O2

- IC50 [1]: 5.8 nM
- bioavailability [2]: 7.5%
- clearance [3]: 44 mL/min/kg
SMILES: CC(C)Oc1nc2c(cc1C(=O)Nc1cccc(-c3cnn(C)c3)n1)CC(C)(C)O2

- IC50 [1]: 51 nM
SMILES: COc1nc2c(cc1C(=O)Nc1cccc(-c3cnn(C)c3)n1)CC(C)(C)O2

- IC50 [1]: 48 nM
SMILES: CCOc1nc2c(cc1C(=O)Nc1cccc(C(F)F)n1)CC(C)(C)O2
